In ChEMBL document CHEMBL1201862, “PubChem BioAssay data set” (2004):
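Growth conditions: 96-well plates. Treatment: test compound, 48 hours, 5 concentrations. Analysis: linear interpolation between bracketing concentrations; unreached endpoints set to highest concentration. At the GI50, growth is halved.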 Active and inactive are the calls of the source. No stated cut-off is given here; in the data, active = GI50 up to about 1.1 µM and inactive = higher.

Columns and labels:
Experiment in all cases: NCI anticancer screen, dose series, 48 h
EKVX = system: EKVX
UACC-257 = system: UACC-257
HOP-18 = system: HOP-18
SK-MEL-28 = system: SK-MEL-28
M19-MEL = system: M19-MEL
UACC-62 = system: UACC-62
NCI-H460 = system: NCI-H460
K562 = system: K562
TK-10 = system: TK-10
CCRF-CEM = system: CCRF-CEM
SK-OV-3 = system: SK-OV-3
A549 = system: A549
DLD-1 = system: DLD-1
COLO 205 = system: COLO 205
M14 = system: M14
RXF 393 = system: RXF 393
KM-20L2 = system: KM-20L2
HOP-62 = system: HOP-62
OVCAR-5 = system: OVCAR-5
DMS-114 = system: DMS-114
UO-31 = system: UO-31
U-251 = system: U-251
SR = system: SR
LXFL 529 = system: LXFL 529
NCI-H522 = system: NCI-H522
DMS-273 = system: DMS-273
786-0 = system: 786-0
MOLT-4 = system: MOLT-4
HCT-116 = system: HCT-116
ACHN = system: ACHN
RXF 631 = system: RXF 631
HCT-15 = system: HCT-15
SW-620 = system: SW-620
SF-539 = system: SF-539
A498 = system: A498
OVCAR-4 = system: OVCAR-4
SN12C = system: SN12C
HT-29 = system: HT-29
NCI-H226 = system: NCI-H226
LOX IMVI = system: LOX IMVI
SNB-78 = system: SNB-78
CAKI-1 = system: CAKI-1
SNB-75 = system: SNB-75
Malme-3M = system: Malme-3M
HOP-92 = system: HOP-92
OVCAR-3 = system: OVCAR-3
SNB-19 = system: SNB-19
SK-MEL-2 = system: SK-MEL-2
HL-60 = system: HL-60
HCC 2998 = system: HCC 2998
RPMI-8226 = system: RPMI-8226
OVCAR-8 = system: OVCAR-8
KM12 = system: KM12
NCI-H23 = system: NCI-H23
SF-295 = system: SF-295
SF-268 = system: SF-268
IGROV-1 = system: IGROV-1
XF498 = system: XF498
SK-MEL-5 = system: SK-MEL-5

O=C1[C@@H]2C(c3ccccc3F)=NO[C@@H]2C(=O)N1c1ccc(Cc2ccc(N3C(=O)[C@H]4C(c5ccccc5F)=NO[C@H]4C3=O)cc2)cc1
GI50 (EKVX): > 100 µM (inactive) | GI50 (UACC-257): > 100 µM (inactive) | GI50 (HOP-18): > 100 µM (inactive) | GI50 (SK-MEL-28): > 100 µM (inactive) | GI50 (M19-MEL): > 100 µM (inactive) | GI50 (UACC-62): > 100 µM (inactive) | GI50 (NCI-H460): > 100 µM (inactive) | GI50 (K562): > 55.1 µM (inactive) | GI50 (TK-10): > 31.6 µM (inactive) | GI50 (CCRF-CEM): 16 µM (inactive) | GI50 (SK-OV-3): > 100 µM (inactive) | GI50 (A549): > 100 µM (inactive) | GI50 (DLD-1): > 100 µM (inactive) | GI50 (COLO 205): > 100 µM (inactive) | GI50 (M14): > 100 µM (inactive) | GI50 (RXF 393): > 43.7 µM (inactive) | GI50 (KM-20L2): > 100 µM (inactive) | GI50 (HOP-62): > 100 µM (inactive) | GI50 (OVCAR-5): > 100 µM (inactive) | GI50 (DMS-114): > 100 µM (inactive) | GI50 (UO-31): > 100 µM (inactive) | GI50 (U-251): > 100 µM (inactive) | GI50 (SR): 34.1 µM (inactive) | GI50 (LXFL 529): > 100 µM (inactive) | GI50 (NCI-H522): > 100 µM (inactive) | GI50 (DMS-273): > 100 µM (inactive) | GI50 (786-0): > 100 µM (inactive) | GI50 (MOLT-4): 19.6 µM (inactive) | GI50 (HCT-116): > 100 µM (inactive) | GI50 (ACHN): > 100 µM (inactive) | GI50 (RXF 631): > 100 µM (inactive) | GI50 (HCT-15): > 100 µM | GI50 (SW-620): > 75.7 µM (inactive) | GI50 (SF-539): > 100 µM (inactive) | GI50 (A498): > 100 µM (inactive) | GI50 (OVCAR-4): > 100 µM (inactive) | GI50 (SN12C): > 100 µM (inactive) | GI50 (HT-29): > 100 µM (inactive) | GI50 (NCI-H226): > 100 µM (inactive) | GI50 (LOX IMVI): > 100 µM (inactive) | GI50 (SNB-78): > 100 µM (inactive) | GI50 (CAKI-1): > 100 µM (inactive) | GI50 (SNB-75): > 100 µM (inactive) | GI50 (Malme-3M): > 100 µM (inactive) | GI50 (HOP-92): 34.4 µM (inactive) | GI50 (OVCAR-3): > 100 µM (inactive) | GI50 (SNB-19): > 100 µM (inactive) | GI50 (SK-MEL-2): > 100 µM (inactive) | GI50 (HL-60): 14.4 µM (inactive) | GI50 (HCC 2998): > 100 µM (inactive) | GI50 (RPMI-8226): 29.4 µM (inactive) | GI50 (OVCAR-8): > 100 µM (inactive) | GI50 (KM12): > 100 µM (inactive) | GI50 (NCI-H23): > 100 µM (inactive) | GI50 (SF-295): > 100 µM (inactive) | GI50 (SF-268): > 100 µM (inactive) | GI50 (IGROV-1): > 100 µM (inactive) | GI50 (XF498): > 87.3 µM (inactive) | GI50 (SK-MEL-5): > 100 µM (inactive)
